Key:
H. virescens = experiment: Incorporation into H. virescens diet; type: in vivo, Heliothis virescens; conditions: as much as 20 mM in diet
Description: Compounds 1, 10, 11, 13 and 14 were incorporated into H. virescens diet in the same manner as M. Sexta. Diets containing as much as 20 mM of each compound had little effect on larval development time, pupal weight or time to adult emergence.

[1] = test system: tobacco hornworm larvae (newly ecdysed fifth-instar); experiment: Topical application to tobacco hornworm larvae; type: in vivo, Manduca sexta
Description: The test compounds were dissolved either in acetone or hexane and applied to the integument of the test insect with a micro applicator. Newly ecdysed fifth-instar tobacco hornworm larvae weighing between 1-1.5 g were used and toxicity data were obtained in the same way as previously described.

[2] = Acute oral toxicity test using the rat; conditions: in vivo
Text: In these studies, it has been determined that the 1,2-diphenylaziridines of this invention have low mammalian toxicity.
Immediate effects, resulting from insecticide toxicity, are usually related to the principal toxic action of the compound.

[3] = test system: Salmonella typhimurium strains TA 98, TA 100, TA 1535, TA 1537, TA 1538, TA 1978; experiment: Ames assay (spot test), revertant colonies; type: cell-based
Description: This means that aziridine compounds, 1, 10, or 11, will not cause mutations in DNA arising from potential changes in frame shift and/or base pairing. Compounds 1, 10 and 11 were tested for mutagenic properties using the following experimental procedure.
Potential mutagenic and carcinogenic properties of the compounds were evaluated with standard Ames assay procedures (Ames et al, "Mutation Res.", 31, p. 347, 1975). This assay used strains of Salmonella typhimurium selected for sensitivity and specificity in being reverted from a histidine requirement back to prototrophy by a wide variety of mutagens. Potential changes in frameshift were evaluated using strains TA 98, TA 1537 and TA 1538, while changes in base pairing were detected using strains TA 100 and TA 1535. In addition, strain TA 1978 was used, in combination with TA 1538, to evaluate whether the agent killed bacteria by damage to DNA that could be repaired by this strain. Initially, the compounds were screened using the spot test, in which 1000 μgm of material dissolved in 10 μl of DNSO was applied to the middle of the plate.
Dose-response tests were not performed because the results were negative. All the tests were carried out in the presence and absence of an S9 rat liver preparation and contained a positive control (2-acetylaminofluorene,AAF) and a negative control (DMSO).

[4] = test system: tobacco hornworm (Manduca sexta) larvae; experiment: Tobacco hornworm growth and developmental responses to feeding on diets containing the compounds; type: in vivo; conditions: for oral activity: diet, Example 2
[5] = test system: Podisus maculiventris (nymphs & adults); experiment: Topical application study, Podisus maculiventris nymphs & adults; type: in vivo; conditions: 10,000 μg/g
Text: (§1) Preliminary tests with topical applications of Compound 13 have been conducted on a number of insect species representing 5 different orders. Since the same amount of compound was used, regardless of body size, the smaller species received a larger dose/body mass. More extensive work will be required to establish LD50 values. […]

[6] = test system: Blaberus discoidalis (nymphs); experiment: Topical application study, Blaberus discoidalis nymphs; type: in vivo; conditions: 1000 μg/g, approx. 500 mg, w/in 24 hr
Text: as §1

[7] = test system: Blattella germanica (adult); experiment: Topical application study, Blattella germanica adult; type: in vivo; conditions: 7150 μg/g, approx. 70 mg, w/in 24 hr
Text: as §1

[8] = test system: Ostrinia nubilalis (larvae); experiment: Topical application study, Ostrinia nubilalis larvae; type: in vivo; conditions: 6250 μg/g, approx. 80 mg; nearing pupation size at time of treatment
Text: as §1

[9] = test system: Periplaneta americana (adult); experiment: Topical application study, Periplaneta americana adult; type: in vivo; conditions: 666 μg/g, approx. 750 mg, w/in 24 hr
Text: as §1

Estigmene acrea (larvae) = experiment: Topical application study, Estigmene acrea larvae; type: in vivo; conditions: 1250 μg/g, approx. 800 mg, w/in 24 hr
Text: as §1

[10] = test system: Popillia japonica (larvae); experiment: Topical application study, Popillia japonica larvae; type: in vivo; conditions: 500 μg/g, approx. 250 mg, w/in 24 hr
Text: as §1

H. virescens larvae = experiment: Topical application to H. virescens larvae; type: in vivo, Heliothis virescens; conditions: 1500 ppm topical, 200 mg 5th instars
Musca autumnalis (Adult) = experiment: Topical application study, Musca autumnalis adult; type: in vivo; conditions: 25,000 μg/g
Text: as §1

[11] = test system: Malacosoma americanum (larvae); experiment: Topical application study, Malacosoma americanum larvae; type: in vivo; conditions: 1000 μg/g, approx. 500 mg, w/in 24 hr
Text: as §1

Musca domestica (Adult) = experiment: Topical application study, Musca domestica adult; type: in vivo; conditions: 25,000 μg/g
Text: as §1

[12] = test system: Hyphantria cunea (larvae); experiment: Topical application study, Hyphantria cunea larvae; type: in vivo; conditions: 5000 μg/g, approx. 100 mg, w/in 24 hr
Text: as §1

[13] = 5 mM in diet, all tests began with 15 larvae

Compound: Clc1ccc(N2CC2c2ccccc2Cl)cc1Cl (centres unmarked) [Compound 10, 1-(3-4-dichlorophenyl)-2-(2-chlorophenyl)aziridine]
- effect on larval development time, pupal weight or time to adult emergence (H. virescens): little effect
- topical effect ([1]; 2000 μg/larvae (1600 ppm)): ineffective
- LD50 [2]: > 2000 mg/kg
- Mean number of revertant colonies per plate, TA 98 +S9 ([3]; strain TA 98, +S9): 45.3 colonies per plate
- Mean number of revertant colonies per plate, TA 98 -S9 ([3]; strain TA 98, -S9): 26.7 colonies per plate
- Mean number of revertant colonies per plate, TA 100 +S9 ([3]; strain TA 100, +S9): 56.0 colonies per plate
- Mean number of revertant colonies per plate, TA 100 -S9 ([3]; strain TA 100, -S9): 26.3 colonies per plate
- Mean number of revertant colonies per plate, TA 1535 +S9 ([3]; strain TA 1535, +S9): 20.3 colonies per plate
- Mean number of revertant colonies per plate, TA 1535 -S9 ([3]; strain TA 1535, -S9): 25.0 colonies per plate
- Mean number of revertant colonies per plate, TA 1537 +S9 ([3]; strain TA 1537, +S9): 13.7 colonies per plate
- Mean number of revertant colonies per plate, TA 1537 -S9 ([3]; strain TA 1537, -S9): 9.0 colonies per plate
- Mean number of revertant colonies per plate, TA 1538 +S9 ([3]; strain TA 1538, +S9): 35.7 colonies per plate
- Mean number of revertant colonies per plate, TA 1538 -S9 ([3]; strain TA 1538, -S9): 12.0 colonies per plate
- Mean number of revertant colonies per plate, TA 1978 +S9 ([3]; strain TA 1978, +S9): 202.0 colonies per plate
- Mean number of revertant colonies per plate, TA 1978 -S9 ([3]; strain TA 1978, -S9): 196.0 colonies per plate
- mutagenicity ([3]; with and without S9 / mammalian liver enzymes): not mutagenic
- % Adult Emergence ([4]; 5 mM in diet): 7%
- % Malformed Adults ([4]; 5 mM in diet): 100%
- % Pupation ([4]; 5 mM in diet): 80%
- Days to Max Wt ([4]; 5 mM in diet): 7.5 ± .3 days
- Max Larval Wt ([4]; 5 mM in diet): 5.69 ± .27 g
- Mean No. of Eggs ([4]; 5 mM in diet): 55 ± 0
- No. of female Adults ([4]; 5 mM in diet): 1
- feeding time required to attain reduced maximum weight ([4]; 5 mM in diet): extended the feeding time
- pupal mortality ([4]; 5 mM in diet): significant pupal mortality
- reduction in the maximum weight of hornworm larvae ([4]; 5 mM in diet): 30-50%
- wrinkled or crumpled wings of moths ([4]; 5 mM in diet): observed in significant numbers of moths
- Total No. of Adults [4, 13]: 1
- oral activity [4]: good oral activity
- pupal mortality ([4]; summary of Tables I and II): caused pupal mortality

Compound: Fc1ccc(N2CC2c2ccccc2Cl)cc1 (centres unmarked) [Compound 13]
- time to 100% mortality [5]: ≤ 1.2 h
- mortality at 10000 µg/g ([5]; Podisus maculiventris, topical, approx. 50 mg, w/in 1.2 hr): 100%
- mortality at 1000 µg/g [6]: 100%
- mortality at 7150 µg/g [7]: 100%
- Result [8]: No effect
- effect on larval development time, pupal weight or time to adult emergence (H. virescens): little effect
- mortality at 666 µg/g [9]: 100%
- mortality at 1250 µg/g (Estigmene acrea (larvae)): 33%
- mortality at 125 µg/larva ([1]; Manduca sexta, topical, 125 μg/larva (100 μg/g or 100 ppm), within 24 hr): 60%
- topical activity against the tobacco hornworm (comparison in words) ([1]; topical): the greatest topical activity
- larval size and number of eggs ([1]; topical, 50 and 25 ppm): reduced larval size and smaller number of eggs
- % Adult Emergence ([4]; 1 mM in diet): 100%
- % Adults ([4]; 1 mM in diet): 100%
- % Malformed Adults ([4]; 1 mM in diet): 7%
- % Pupation ([4]; 1 mM in diet): 100%
- Days to Max Wt ([4]; 1 mM in diet): 6.7 ± .2 days
- Max Larval Wt ([4]; 1 mM in diet): 9.50 g
- Mean No. of Eggs ([4]; 1 mM in diet): 71 ± 8
- No. of female Adults ([4]; 1 mM in diet): 11
- Total No. of Adults ([4]; 1 mM in diet): 15
- % Adult Emergence ([4]; 2.5 mM in diet): 86%
- % Adults ([4]; 2.5 mM in diet): 86%
- % Malformed Adults ([4]; 2.5 mM in diet): 0%
- % Pupation ([4]; 2.5 mM in diet): 100%
- Days to Max Wt ([4]; 2.5 mM in diet): 8.7 ± 0.5 days
- Max Larval Wt ([4]; 2.5 mM in diet): 8.03 g
- Mean No. of Eggs ([4]; 2.5 mM in diet): 21 ± 9
- No. of female Adults ([4]; 2.5 mM in diet): 9
- Total No. of Adults ([4]; 2.5 mM in diet): 12
- maximum larval weight and mean number of eggs ([4]; 2.5 mM in diet): reduced maximum larval weight and the mean number of eggs
- % Adult Emergence ([4]; 5 mM in diet): 13%
- % Malformed Adults ([4]; 5 mM in diet): 50%
- % Pupation ([4]; 5 mM in diet): 13%
- Days to Max Wt ([4]; 5 mM in diet): 10.0 ± 4.2 days
- Max Larval Wt ([4]; 5 mM in diet): 6.13 ± .62 g
- No. of female Adults ([4]; 5 mM in diet): 0
- larval mortality ([4]; 5 mM in diet): all or nearly all larvae died
- weight gain of surviving larvae ([4]; 5 mM in diet): no weight gain for 4 or more days
- wrinkled or crumpled wings of moths ([4]; 5 mM in diet): observed in significant numbers of moths
- larvae dead by day two ([4]; 5 mM in diet, day two): 60%
- Total No. of Adults [4, 13]: 2
- oral activity [4]: good oral activity
- larval mortality (acute toxicity) ([4]; in 24-72 hours, summary of Tables I and II): 100%
- time to 100% larval mortality ([4]; summary of Tables I and II): 24 to 72 h
- mortality at 500 µg/g [10]: 100%
- mortality (H. virescens larvae): failed to kill any of the larvae
- symptoms (H. virescens larvae): produced some of the symptoms characteristic of this group of compounds
- time to 100% mortality (Musca autumnalis (Adult)): ≤ 2 h
- mortality at 25000 µg/g (Musca autumnalis (Adult); Musca autumnalis, topical, approx. 20 mg, w/in 2 hr): 100%
- mortality at 1000 µg/g [11]: 100%
- time to 100% mortality (Musca domestica (Adult)): ≤ 1.5 h
- mortality at 25000 µg/g (Musca domestica (Adult); Musca domestica, topical, approx. 20 mg, 2/in 1.5 hr): 100%
- mortality at 5000 µg/g [12]: 50%
